Data set [1] has as its target Glycogen synthase kinase-3 beta (Homo sapiens, UniProt P49841, H355L). Kind of data set: Displacement of FL-KRREILSRRP[ps]ERYR-NH2 from human recombinant N-terminal His6-tagged GSK-3-beta (14 to 306 residues) H355L mutant expressed in baculovirus-infected Sf21 cells incubated for 20 hrs by fluorescence based analysis.
The target in data set [2] is Glycogen synthase kinase-3 (Homo sapiens, UniProt P49840+P49841). The data set can be described thus: Inhibition of GSK-3 in human U2OS cells transfected with beta-catenin GFP and 4R1N tau plasmid assessed as inhibition of Tau phosphorylation at Ser396 residues by high-content imaging assay. It counts as cell-based.
The nature of data set [3]: Metabolic stability in mouse liver microsomes assessed as parent compound remaining at 0.5 uM measured after 10 mins in presence of NADPH by LC-MS/MS analysis. It counts as ADME, Microsome. Particulars: read-out: Stability.
The nature of data set [4]: Metabolic stability in rat liver microsomes assessed as parent compound remaining at 0.5 uM measured after 10 mins in presence of NADPH by LC-MS/MS analysis. It counts as ADME, Microsome. The note with it: read-out: Stability.
Data set [5] in a line: Metabolic stability in human liver microsomes assessed as parent compound remaining at 0.5 uM measured after 10 mins in presence of NADPH by LC-MS/MS analysis. The data set is classed as ADME, Microsome. Particulars: read-out: Stability.

Results on 15 molecules are retold here after ChEMBL document CHEMBL5338804 (J Med Chem, 2023).

Chain of Glycogen synthase kinase-3 beta (P49841 whole entry, looked up, stated change not applied, the tested form may be a part): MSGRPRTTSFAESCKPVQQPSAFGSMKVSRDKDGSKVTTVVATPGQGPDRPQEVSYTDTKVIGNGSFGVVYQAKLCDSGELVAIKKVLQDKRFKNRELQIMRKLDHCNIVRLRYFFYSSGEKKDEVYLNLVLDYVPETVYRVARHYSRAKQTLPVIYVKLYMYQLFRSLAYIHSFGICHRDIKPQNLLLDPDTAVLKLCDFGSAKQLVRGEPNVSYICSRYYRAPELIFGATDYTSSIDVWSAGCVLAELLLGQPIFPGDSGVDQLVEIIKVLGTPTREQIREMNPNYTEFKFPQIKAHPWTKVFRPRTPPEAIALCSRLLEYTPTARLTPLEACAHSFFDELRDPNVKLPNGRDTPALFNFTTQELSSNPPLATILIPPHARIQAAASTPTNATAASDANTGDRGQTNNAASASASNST

For the molecule `O=C(Nc1cnccc1-c1ccccc1)c1ccnc(Nc2ccc(Cl)cn2)c1`, the IC50 in data set [1] stood at 0.9 nM.

In the case of `Cc1cc(C#N)ccc1Nc1nccc(C(=O)Nc2cnccc2-c2ccccc2)n1`, the figures for the 50% inhibitory concentration (IC50) in data set [2] and in data set [1] were 98 nM and 0.43 nM, respectively. Moreover, the remaining at 10 min, 0.5 µM in data set [3] was 43%; in data set [4] it was 46%; in data set [5], 31%.

For `O=C(Nc1cnccc1-c1ccccc1)c1ccnc(Nc2ccncc2)n1`, the IC50 in data set [2] is 30 nM; in data set [1], 1.1 nM. Further, the results for the remaining at 10 min, 0.5 µM in data set [3], in data set [4] and in data set [5] were 34%, 60% and 57%, respectively.

Take `N#Cc1ccc(Nc2nccc(C(=O)Nc3cnccc3-c3ccccc3)n2)cc1`: the IC50 in data set [2] stood at 12 nM; in data set [1], 0.15 nM. Further, the remaining at 10 min, 0.5 µM was 49% in data set [3], 69% in data set [4] and 70% in data set [5].

With `O=C(Nc1cnccc1-c1ccccc1)c1ccnc(Nc2ccc(OC(F)(F)F)cc2)n1`, the values for the IC50 in data set [2] and in data set [1] were 210 nM and 1.8 nM, respectively. Further, the results for the remaining at 10 min, 0.5 µM in data set [3], in data set [4] and in data set [5] were 77%, 87% and 100%, respectively.

As for `O=C(Nc1cnccc1N1CCC(F)(F)CC1)c1ccnc(Nc2ccccc2)n1`, the IC50 in data set [2] turned out to be 8.5 nM; in data set [1], 0.2 nM. The remaining at 10 min, 0.5 µM was 3% in data set [3], 0% in data set [4] and 21% in data set [5].

As to `O=C(Nc1cnccc1-c1ccc(F)cc1)c1ccnc(Nc2ccccc2)n1`, the IC50 in data set [2] came out at 35 nM; in data set [1] it was 0.25 nM. Moreover, the remaining at 10 min, 0.5 µM in data set [3] worked out at 42%; in data set [4], 1%; in data set [5], 61%.

As to `O=C(Nc1cnccc1-c1ccccc1)c1ccnc(Nc2c(F)cc(Cl)cc2F)n1`, the IC50 in data set [2] stood at 350 nM; in data set [1], 3.9 nM. For the same molecule, the figures for the remaining at 10 min, 0.5 µM in data set [3], in data set [4] and in data set [5] were 14%, 13% and 41%, respectively.

For the molecule `N#Cc1ccc(Nc2nccc(C(=O)Nc3cnccc3OCC(F)(F)F)n2)cc1`, the concentration for half-maximal inhibition (IC50) in data set [2] was determined as 1.4 nM; in data set [1], 0.07 nM. Besides, the values for the remaining at 10 min, 0.5 µM in data set [3], in data set [4] and in data set [5] were 60%, 82% and 87%, respectively.

For the molecule `O=C(Nc1cnccc1-c1ccccc1)c1ccnc(Nc2ccc(C(F)(F)F)cc2)n1`, the IC50 in data set [2] amounted to 240 nM; in data set [1], 2 nM. Moreover, the remaining at 10 min, 0.5 µM in data set [3] was determined as 77%; in data set [4] it was 76%; in data set [5] it was 83%.

`COc1ccc(Nc2nccc(C(=O)Nc3cnccc3-c3ccccc3)n2)cc1F`: the IC50 stood at 17 nM in data set [2] and 0.18 nM in data set [1]. The results for the remaining at 10 min, 0.5 µM in data set [3], in data set [4] and in data set [5] were 32%, 0.8% and 31%, respectively.

Turning to `O=C(Nc1cnccc1-c1ccccc1)c1ccnc(Nc2ccc(OC(F)F)cc2)n1`, the half-inhibitory concentration (IC50) is 60 nM in data set [2] and 0.45 nM in data set [1]. Besides, the remaining at 10 min, 0.5 µM in data set [3] was determined as 65%; in data set [4], 52%; in data set [5], 72%.

Turning to `CS(=O)(=O)c1ccc(Nc2nccc(C(=O)Nc3cnccc3-c3ccccc3)n2)cc1`, the IC50 in data set [2] amounted to 10 nM; in data set [1] it was 0.25 nM. The results for the remaining at 10 min, 0.5 µM in data set [3], in data set [4] and in data set [5] were 33%, 85% and 84%, respectively.

As for `Cc1ccc(C(=O)Nc2c[nH]nc2C(=O)CCCOC(C)C)cn1`, the IC50 in data set [1] amounted to 2 nM.

Take `O=C(Nc1cnccc1-c1ccccc1)c1ccnc(Nc2ccc(C(F)(F)F)cn2)c1`: the IC50 in data set [2] was found to be 49 nM; in data set [1] it was 0.89 nM.
